Columns and labels:
Assay type in all cases: cell-based
[1] = test system: phosphorylation of AKT and downstream substrates; test: Western immunoblotting of AKT pathway phosphorylation in AML cell lines; conditions: for Phosphorylation of AKT and its downstream substrates: cell line models of AML, immunoblot (FIG. 1d, FIG. 4b)
AML cells = test: In vitro drug sensitivity assay (GI50 assay, CellTiter-Glo); conditions: for Chemosensitization of AML cells by inhibitors of alternative PI3K catalytic isoforms (p110α, p110β, p110δ): sensitivity to doxorubicin, S63845 or selinexor (FIG. 3b); for Sensitization of AML cells to the drug by IPI-549 treatment; GI50 of combination vs drug alone: indicated AML cell lines (FIG. 3a-b); for Chemosensitization to the drug mediated by PI3Kγ inhibition with IPI-549: OCI-AML2 cells (FIG. 6)
Protocol: AML cells were plated in 96-well plates at a density of 5,000-10,000 cells per 100 μL per well. Wells were treated with drug dilution series at the doses indicated and cultured for 72 hours. Subsequently, relative cell viability was approximated using Promega CellTiter-Glo Luminescent Cell Viability Assay, normalized to either DMSO or the indicated background drug. GI50 values where approximated from dose-response curves plotted using GraphPad/Prism 8 software.

phosphorylation of AKT = test: Conditioned media and SDF1-a cytokine experiments (AKT activation in AML cells)
Protocol: Serum free RPMI-1640 medium with incubated with a confluent plate of HS-5 cells for 36 hours. Conditioned media was centrifuged at 1200 rpm for 5 minutes and filtered with a 0.45 uM filter to remove any remaining cells. AML cells were incubated with conditioned media with or without IPI-549 for 30 minutes prior to harvesting on ice for lysate preparation. An analogous strategy was performed with SDF-1a (200 ng/mL) containing media. SDF-1a was purchased from ProteinTech and solubilized in water.

Cc1nc(NC(=O)N2CCC[C@H]2C(N)=O)sc1-c1ccnc(C(C)(C)C(F)(F)F)c1 [BYL-719, Alpelisib]
Phosphorylation of AKT and its downstream substrates [1]: minimally capable of suppressing
Chemosensitization of AML cells by inhibitors of alternative PI3K catalytic isoforms (p110α, p110β, p110δ) (AML cells): not observed

C[C@H](NC(=O)c1c(N)nn2cccnc12)c1cc2cccc(C#Cc3cnn(C)c3)c2c(=O)n1-c1ccccc1 [IPI-549]
Activation of AKT signaling by media conditioned with human BM-MSCs (HS-5) (phosphorylation of AKT; HL-60 (500 nM) and OCI-AML3 (100 nM IPI-549) cells (FIG. 1g)): fully precluded
Activation of AKT by SDF1α (CXCL12) stimulation (phosphorylation of AKT; serum-deprived AML cells, 200 ng/mL SDF1α, HL-60 500 nM, OCI-AML3 100 nM IPI-549 (FIG. 1h)): prevented
Phosphorylation of AKT and its downstream substrates [1]: lost
Correlation of sensitivity (GI50) to IPI-549 with sensitivity to AKT inhibition with MK-2206 (AML cells; panel of 10 AML cell lines (FIG. 5b-d)): strongly correlated

Cc1sc2c(c1C)C(c1ccc(Cl)cc1)=N[C@@H](CC(=O)OC(C)(C)C)c1nnc(C)n1-2 [JQ1]
Sensitization of AML cells to the drug by IPI-549 treatment; GI50 of combination vs drug alone (AML cells): can sensitize

CC(C)n1nc(-c2ccc3oc(N)nc3c2)c2c(N)ncnc21 [MLN-128]
Effect on potency of AKT/p110γ inhibition (MK-2206 or IPI-549); GI50 of combination vs single drug (AML cells; panel of AML cell lines (FIG. 2d, FIG. 5g)): enhanced the potency

O=C(Nc1ccc2[nH]nc(-c3ccncc3)c2c1)[C@@H]1CCN(CC(=O)N2CCN(c3ccc(-c4ncccn4)cc3)CC2)C1 [SCH772984]
Sensitization of AML cells to the drug by IPI-549 treatment; GI50 of combination vs drug alone (AML cells): can sensitize

Cc1cc(C(C)Nc2ccccc2)c2nc(N3CCOCC3)cc(=O)n2c1 (stereo not drawn) [TGX-221]
Chemosensitization of AML cells by inhibitors of alternative PI3K catalytic isoforms (p110α, p110β, p110δ) (AML cells): not observed

Nc1ncn([C@@H]2O[C@H](CO)[C@@H](O)[C@H]2O)c(=O)n1 [azacytidine]
Chemosensitization to the drug mediated by PI3Kγ inhibition with IPI-549 (AML cells): not observed

Cc1c(-c2c(-c3ccc(F)o3)sc3ncnc(O[C@H](Cc4ccccc4OCc4ccnn4CC(F)(F)F)C(=O)O)c23)ccc(OCCN2CCN(C)CC2)c1Cl [compound 563845]
Sensitization of AML cells to the drug by IPI-549 treatment; GI50 of combination vs drug alone (AML cells): can sensitize

Nc1ccn([C@@H]2O[C@H](CO)[C@@H](O)[C@@H]2O)c(=O)n1 [cytarabine]
Chemosensitization to the drug mediated by PI3Kγ inhibition with IPI-549 (AML cells): not observed

COc1cccc2c1C(=O)c1c(O)c3c(c(O)c1C2=O)C[C@@](O)(C(C)=O)C[C@@H]3O[C@H]1C[C@H](N)[C@H](O)[C@H](C)O1 [daunorubicin]
Daunorubicin sensitivity under p110α inhibition; GI50 of combination vs daunorubicin alone (AML cells; any of the AML models tested (FIG. 2e; legend prints BYL-549)): did not alter
Daunorubicin sensitivity under p110γ inhibition (IPI-549); GI50 of combination vs daunorubicin alone (AML cells; in 9/10 AML cell lines tested (FIG. 2e)): significantly potentiated
Sensitization of AML cells to the drug by IPI-549 treatment; GI50 of combination vs drug alone (AML cells): can sensitize

CC(=O)O[C@@]12CO[C@@H]1C[C@H](O)[C@@]1(C)C(=O)[C@H](O)C3=C(C)[C@@H](OC(=O)[C@H](O)[C@@H](NC(=O)OC(C)(C)C)c4ccccc4)C[C@@](O)([C@@H](OC(=O)c4ccccc4)[C@H]21)C3(C)C [docetaxel]
Chemosensitization to the drug mediated by PI3Kγ inhibition with IPI-549 (AML cells): not observed

COc1cccc2c1C(=O)c1c(O)c3c(c(O)c1C2=O)C[C@@](O)(C(=O)CO)C[C@@H]3O[C@H]1C[C@H](N)[C@H](O)[C@H](C)O1 [doxorubicin]
Sensitization of AML cells to the drug by IPI-549 treatment; GI50 of combination vs drug alone (AML cells): can sensitize

COc1cc([C@@H]2c3cc4c(cc3[C@@H](O[C@@H]3O[C@@H]5CO[C@@H](C)O[C@H]5[C@H](O)[C@H]3O)[C@H]3COC(=O)[C@H]23)OCO4)cc(OC)c1O [etoposide]
Sensitization of AML cells to the drug by IPI-549 treatment; GI50 of combination vs drug alone (AML cells): can sensitize

CN1CC[C@@H](NC(=O)Nc2ccc(C#N)cc2)C[C@@H]1c1nc2ccccc2[nH]1 [glasdegib]
Chemosensitization to the drug mediated by PI3Kγ inhibition with IPI-549 (AML cells): not observed

CC(=O)[C@]1(O)Cc2c(O)c3c(c(O)c2[C@@H](O[C@H]2C[C@H](N)[C@H](O)[C@H](C)O2)C1)C(=O)c1ccccc1C3=O [idarubicin]
Sensitization of AML cells to the drug by IPI-549 treatment; GI50 of combination vs drug alone (AML cells): can sensitize

CN(Cc1cnc2nc(N)nc(N)c2n1)c1ccc(C(=O)N[C@@H](CCC(=O)O)C(=O)O)cc1 [methotrexate]
Chemosensitization to the drug mediated by PI3Kγ inhibition with IPI-549 (AML cells): not observed

O=C1[O][Pt]2([NH][C@@H]3CCCC[C@H]3[NH]2)[O]C1=O [oxaliplatin]
Chemosensitization to the drug mediated by PI3Kγ inhibition with IPI-549 (AML cells): not observed

CC(C)(C)c1cc(NC(=O)Nc2ccc(-c3cn4c(n3)sc3cc(OCCN5CCOCC5)ccc34)cc2)no1 [quizartinib]
Sensitization of AML cells to the drug by IPI-549 treatment; GI50 of combination vs drug alone (AML cells): can sensitize

O=C(/C=C\n1cnc(-c2cc(C(F)(F)F)cc(C(F)(F)F)c2)n1)NNc1cnccn1 [selinexor]
Sensitization of AML cells to the drug by IPI-549 treatment; GI50 of combination vs drug alone (AML cells): can sensitize

CNC(=O)c1cc(Oc2ccc(NC(=O)Nc3ccc(Cl)c(C(F)(F)F)c3)cc2)ccn1 [sorafenib]
Sensitization of AML cells to the drug by IPI-549 treatment; GI50 of combination vs drug alone (AML cells): can sensitize

pertussis toxin
AKT phosphorylation ([1]; AML cell lines, Ptx 100 ng/mL for 24 hours (FIG. 1f)): diminished

From patent US20230201202A1, “COMPOSITIONS AND METHODS FOR SENSITIZING ACUTE MYELOID LEUKEMIAS TO CHEMOTHERAPY” (Duke University, priority 2020, published 2023)
